System: Mycobacterium tuberculosis
Test: Antibacterial activity against multi-drug resistant Mycobacterium tuberculosis assessed as reduction in microbial growth
Assay type: functional

C=C[C@@H](O)C#CC#C[C@@H](O)/C=C\CCCCCCC [FALCARINDIOL]
MIC: 32 µg/mL

— ChEMBL document CHEMBL6074642, “Natural and Bioinspired Lipidic Alkynylcarbinols as Leishmanicidal, Antiplasmodial, Trypanocidal, Fungicidal, Antibacterial, and Antimycobacterial Agents” (J Nat Prod, 2024)
